# Measured values taken from PubChem BioAssay (NCI).
#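 Where inhibition never reached the appropriate level, the endpoint shown equals the highest concentration tested. Otherwise, values were interpolated linearly from a five-concentration, 48-hour dose response in 96-well plates. GI50 marks 50% less growth. TGI denotes the concentration required for complete inhibition of growth.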
# Assays:
# Test in all cases: NCI tumour cell line growth inhibition, 48 h
# HS 578T breast = test system: HS 578T breast
# T-47D breast = test system: T-47D breast
# A498 renal = test system: A498 renal
# MDA-MB-435 = test system: MDA-MB-435
# A549 NSCLC = test system: A549 NSCLC
# MDA-MB-231 breast = test system: MDA-MB-231 breast
# IGROV1 ovarian = test system: IGROV1 ovarian
# K-562 leukemia = test system: K-562 leukemia
# TK-10 renal = test system: TK-10 renal
# EKVX NSCLC = test system: EKVX NSCLC
# SW-620 colon = test system: SW-620 colon
# NCI-H226 lung = test system: NCI-H226 lung
# BT-549 breast = test system: BT-549 breast
# HCC-2998 colon = test system: HCC-2998 colon
# OVCAR-4 ovarian = test system: OVCAR-4 ovarian
# COLO 205 colon = test system: COLO 205 colon
# M14 melanoma = test system: M14 melanoma
# NCI-H23 lung = test system: NCI-H23 lung
# SNB-19 CNS = test system: SNB-19 CNS
# UACC-62 melanoma = test system: UACC-62 melanoma
# UACC-257 melanoma = test system: UACC-257 melanoma
# SNB-75 CNS = test system: SNB-75 CNS
# HT29 colon = test system: HT29 colon
# HOP-62 NSCLC = test system: HOP-62 NSCLC
# ACHN renal = test system: ACHN renal
# SR leukemia = test system: SR leukemia
# OVCAR-3 ovarian = test system: OVCAR-3 ovarian
# RXF 393 renal = test system: RXF 393 renal
smiles,measurement,setting,value
O=[N+]([O-])c1cc2c(c([N+](=O)[O-])c1)Nc1ccccc1O2,GI50,HS 578T breast,7.22 µM
same,TGI,HS 578T breast,> 100 µM
same,GI50,T-47D breast,2.79 µM
same,TGI,T-47D breast,10.2 µM
same,GI50,A498 renal,1.73 µM
same,TGI,A498 renal,9.34 µM
same,GI50,MDA-MB-435,8 µM
same,TGI,MDA-MB-435,> 100 µM
same,GI50,A549 NSCLC,5.51 µM
same,TGI,A549 NSCLC,60.4 µM
same,GI50,MDA-MB-231 breast,6.38 µM
same,TGI,MDA-MB-231 breast,30.7 µM
same,GI50,IGROV1 ovarian,7.58 µM
same,TGI,IGROV1 ovarian,> 100 µM
same,GI50,K-562 leukemia,4.64 µM
same,TGI,K-562 leukemia,> 100 µM
same,GI50,TK-10 renal,9.98 µM
same,TGI,TK-10 renal,46.7 µM
same,GI50,EKVX NSCLC,4.4 µM
same,TGI,EKVX NSCLC,51.7 µM
same,GI50,SW-620 colon,10.7 µM
same,TGI,SW-620 colon,> 100 µM
same,GI50,NCI-H226 lung,5.97 µM
same,TGI,NCI-H226 lung,> 100 µM
same,GI50,BT-549 breast,7.58 µM
same,TGI,BT-549 breast,60.8 µM
same,GI50,HCC-2998 colon,7.75 µM
same,TGI,HCC-2998 colon,> 100 µM
same,GI50,OVCAR-4 ovarian,5.99 µM
same,TGI,OVCAR-4 ovarian,68.3 µM
same,GI50,COLO 205 colon,10.5 µM
same,TGI,COLO 205 colon,27.8 µM
same,GI50,M14 melanoma,11.5 µM
same,TGI,M14 melanoma,> 100 µM
same,GI50,NCI-H23 lung,2.78 µM
same,TGI,NCI-H23 lung,87.2 µM
same,GI50,SNB-19 CNS,6.33 µM
same,TGI,SNB-19 CNS,> 100 µM
same,GI50,UACC-62 melanoma,5.11 µM
same,TGI,UACC-62 melanoma,> 100 µM
same,GI50,UACC-257 melanoma,3.74 µM
same,TGI,UACC-257 melanoma,39.1 µM
same,GI50,SNB-75 CNS,29.8 µM
same,TGI,SNB-75 CNS,> 100 µM
same,GI50,HT29 colon,6.41 µM
same,TGI,HT29 colon,66.8 µM
same,GI50,HOP-62 NSCLC,16.3 µM
same,TGI,HOP-62 NSCLC,44.4 µM
same,GI50,ACHN renal,6.97 µM
same,TGI,ACHN renal,76.2 µM
same,GI50,SR leukemia,5.46 µM
same,TGI,SR leukemia,> 100 µM
same,GI50,OVCAR-3 ovarian,3.69 µM
same,TGI,OVCAR-3 ovarian,> 100 µM
same,GI50,RXF 393 renal,7.35 µM
same,TGI,RXF 393 renal,46.3 µM
